Experimental data taken from US20030109571A1, “Thromboxane ligands without blood clotting side effects” (ALLERGAN SALES, INC., priority 1993, published 2003).
Entries after “also recorded” stand apart in the source; their conditions may differ. Where two headings read alike, the source gives them in different places. Marks after values point to notes of the source that are not given here. Blank lines part the entries; values can stand above or below the compound they belong to.

Assays:
HPRP = conditions: in words; cited from earlier work
FP prostanoid receptor = assay: FP-activity: contraction of the isolated feline iris sphincter; conditions: concentration producing 50% of maximal response; read-out: EC50 at FP (Cat Iris)
Method: (§1) Activity at different prostanoid receptors was measured in vitro in isolated smooth muscle preparations. FP-activity was measured as contraction of the isolated feline iris sphincter. EP1-activity was measured as contraction of the longitudinal smooth muscle of the isolated guinea pig ileum. EP3-activity was measured as inhibition of the twitch response induced by electrical field stimulation in the isolated guinea pig was deferens and as contraction of the longitudinal smooth muscle of the isolated chick ileum. TP-vasoconstrictor activity was measured as contraction of rings of the isolated rat thoracic aorta. Effects on platelets from healthy human donors were measured by incubating platelet-rich plasma with the compounds described herein. Inhibition of aggregation was determined by the ability of the compounds described herein to inhibit platelet aggregation in platelet-rich plasma induced by 20 μM ADP.

EP3 prostanoid receptor [1] = assay: EP3-activity: inhibition of electrically induced twitch response in isolated guinea pig vas deferens; conditions: read-out: EC50 at EP3(c) (Guinea Pig vas deferens)
Method: as §1

EP3 prostanoid receptor [2] = assay: EP3-activity: contraction of longitudinal smooth muscle of isolated chick ileum; conditions: read-out: EC50 at EP3(d) (Chick Ileum)
Method: as §1

[3] = target: T1, TP-receptor (vascular, TPVASC) (Rattus norvegicus, UniProt P34978); assay: TP-vasoconstrictor activity: contraction of rings of isolated rat thoracic aorta, without or with SQ29,548; conditions: for Activity in contracting vascular smooth muscle: in words
T1 construct: measured in vitro in isolated smooth muscle preparations; from tissue; host or cells: rings of isolated rat thoracic aorta
T1 sequence (P34978 1-341): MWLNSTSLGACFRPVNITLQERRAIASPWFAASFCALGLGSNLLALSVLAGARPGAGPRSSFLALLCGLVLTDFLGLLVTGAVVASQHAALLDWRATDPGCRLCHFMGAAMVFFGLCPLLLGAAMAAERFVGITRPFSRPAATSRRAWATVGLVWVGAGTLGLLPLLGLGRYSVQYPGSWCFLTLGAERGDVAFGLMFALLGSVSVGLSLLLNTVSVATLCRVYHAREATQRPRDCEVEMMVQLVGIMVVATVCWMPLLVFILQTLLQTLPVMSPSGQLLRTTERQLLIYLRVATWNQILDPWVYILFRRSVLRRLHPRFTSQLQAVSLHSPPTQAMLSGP
Method: as §1
In addition, inhibition by the thromboxane A2-receptor antagonist SQ29,548 ([1S-[1α, 2α (5Z), 3α, 4α]]-7-[3-[[2-[phenylamino)carbonyl]-hydrazino]methyl]-7-oxabicyclo[2.2.1] hept-2-yl]-5-heptenoic acid) of vasoconstrictor activity was investigated.

Platelets (Human) = assay: Platelet aggregation in platelet-rich plasma from healthy human donors; type: cell-based; conditions: for EC50: Table 1, read-out: EC50 Platelets (Human) Aggregation; for Ability to cause platelet aggregation: in words
Method: as §1

Platelets [4] = assay: Effect of Example 4 pretreatment on agonist-induced platelet aggregation; type: cell-based, human
Method: as §1, with “Inhibition of aggregation was determined by the ability of the compounds described herein to inhibit platelet aggregation in platelet-rich plasma induced by 20 μM ADP.” left out

[5] = Dog intraocular pressure, topical dosing, applanation pneumatonometry; type: in vivo; conditions: dog, dose 0.1%
Method: The compounds were prepared at the said concentrations in a vehicle comprising 0.1% polysorbate 80 and 10 mM TRIS base. Dogs and monkeys were treated by administering 25 ul to the ocular surface, the contralateral eye received vehicle as a control. Intraocular pressure was measured by applanation pneumatonometry. Experiments were performed with dogs and monkeys. Dog intraocular pressure was measured immediately before drug administration and at 2, 4 and 6 hour thereafter. Additional studies in monkeys were performed over a 5 day period and drug was administered at times 0, 6, 24, 30, 48, 54, 72, 78, and 96 hours. Monkey intraocular pressure was recorded just before drug administration on each day and at the 2 and 4 hour time intervals between dosing.

[6] = system: isolated perfused coronary arteries; conditions: cat, cited from earlier work
vasculature = conditions: in words; cited from earlier work
platelets [7] = conditions: in words; cited from earlier work
[8] = in vivo, iv; cited from earlier work
rat aorta = conditions: cited from earlier work
TX synthetase = target: T2, TX synthetase (Homo sapiens, UniProt P24557); conditions: in words; cited from earlier work
T2 sequence (P24557 1-533): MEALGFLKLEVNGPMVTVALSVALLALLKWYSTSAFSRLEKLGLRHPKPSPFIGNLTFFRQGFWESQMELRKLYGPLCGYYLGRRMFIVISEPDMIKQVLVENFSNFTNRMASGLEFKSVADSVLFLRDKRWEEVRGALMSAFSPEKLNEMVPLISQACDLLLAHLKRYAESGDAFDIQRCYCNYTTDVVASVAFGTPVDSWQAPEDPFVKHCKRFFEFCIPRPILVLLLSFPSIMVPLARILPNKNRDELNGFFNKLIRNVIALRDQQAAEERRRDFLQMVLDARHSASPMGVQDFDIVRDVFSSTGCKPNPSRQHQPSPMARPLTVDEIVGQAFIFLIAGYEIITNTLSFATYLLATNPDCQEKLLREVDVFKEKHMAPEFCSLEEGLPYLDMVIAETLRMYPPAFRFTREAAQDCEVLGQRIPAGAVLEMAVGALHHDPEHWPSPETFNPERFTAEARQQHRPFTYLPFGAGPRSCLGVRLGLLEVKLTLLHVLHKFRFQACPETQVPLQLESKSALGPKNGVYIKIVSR

rabbit PRP = conditions: in words; cited from earlier work
TXA2 receptor = target: T3, TXA2 receptor (Homo sapiens, UniProt P21731); conditions: in words; cited from earlier work
T3 sequence (P21731 1-343): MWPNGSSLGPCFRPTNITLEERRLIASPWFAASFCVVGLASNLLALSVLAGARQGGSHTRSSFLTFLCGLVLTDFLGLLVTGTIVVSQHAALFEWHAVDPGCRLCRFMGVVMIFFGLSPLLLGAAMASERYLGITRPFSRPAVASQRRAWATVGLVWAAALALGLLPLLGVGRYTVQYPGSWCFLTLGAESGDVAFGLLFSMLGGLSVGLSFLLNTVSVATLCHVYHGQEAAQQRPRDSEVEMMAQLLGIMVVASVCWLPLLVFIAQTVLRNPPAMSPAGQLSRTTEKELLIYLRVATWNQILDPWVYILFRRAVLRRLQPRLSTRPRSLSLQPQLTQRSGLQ

[9] = Table 1, read-out: EC50 at TPVASC (Rat Aorta)

Structure (SMILES): CCCCC[C@H](O)/C=C/C1C[C@H]2CC(O2)[C@@H]1C/C=C\CCCC(=O)O (stereo partly drawn) [Example 2]
Inhibition of PGH2-induced aggregation of HPRP (HPRP): Inhibitor of PGH2-induced ag- gregation of HPRP^1

EC50 (FP prostanoid receptor): 485 nM
EC50 (EP3 prostanoid receptor [1]): 2930 nM
EC50 (EP3 prostanoid receptor [2]): > 10000 nM
EC50 [3, 9]: 1 nM
EC50 ([3]; absence of SQ29,548, read-out: EC50 at TPVASC-receptor, rat aorta): 0.9 nM
Activity in contracting vascular smooth muscle [3]: pronounced activity
EC50 ([3]; presence of SQ29,548 (1 uM), read-out: EC50 at TPVASC-receptor, rat aorta): 454 nM
Structure (SMILES): CCCCC[C@H](O)/C=C/[C@@H]1[C@@H](C/C=C\CCCCO)[C@@H]2C[C@H]1OC(=O)O2 [Example 4]
EC50 (Platelets (Human)): > 10000 nM
Ability to cause platelet aggregation (Platelets (Human)): no or minimal ability; also recorded: neither causes platelet aggregation
Platelet aggregation after Example 4 pretreatment (Platelets [4]; agonist 2 μM ADP, 10^-6 M Example 4): 73.1 ± 14.3 % of max response
Platelet aggregation after Example 4 pretreatment (Platelets [4]; agonist 2 μM ADP, 10^-7 M Example 4): 68.3 ± 12.9 % of max response
Platelet aggregation after Example 4 pretreatment (Platelets [4]; agonist 20 μM ADP, 10^-6 M Example 4): 97.6 ± 1.8 % of max response
Platelet aggregation after Example 4 pretreatment (Platelets [4]; agonist 20 μM ADP, 10^-7 M Example 4): 99.9 ± 1.4 % of max response
Platelet aggregation after Example 4 pretreatment (Platelets [4]; agonist 800 μM Arachidonic Acid, 10^-6 M Example 4): 98.8 ± 1.1 % of max response
Platelet aggregation after Example 4 pretreatment (Platelets [4]; agonist 800 μM Arachidonic Acid, 10^-7 M Example 4): 98.0 ± 1.8 % of max response
Platelet aggregation after Example 4 pretreatment (Platelets [4]; agonist 3.3 × 10-7 U46619, 10^-6 M Example 4): 94.2 ± 2.8 % of max response
Platelet aggregation after Example 4 pretreatment (Platelets [4]; agonist 3.3 × 10-7 U46619, 10^-7 M Example 4): 93.8 ± 2.3 % of max response
Platelet aggregation after Example 4 pretreatment (Platelets [4]; agonist 3.3 × 10-8 Example 7, 10^-6 M Example 4): −7.3 + 0.7 % of max response
Platelet aggregation after Example 4 pretreatment (Platelets [4]; agonist 3.3 × 10-8 Example 7, 10^-7 M Example 4): −9.0 + 1.6 % of max response
Platelet aggregation after Example 4 pretreatment (Platelets [4]; agonist 10-6 Example 7, 10^-6 M Example 4): 96.5 ± 0.9 % of max response
Platelet aggregation after Example 4 pretreatment (Platelets [4]; agonist 10-6 Example 7, 10^-7 M Example 4): 95.3 ± 0.9 % of max response
Platelet aggregation after Example 4 pretreatment (Platelets [4]; agonist 10-6 U46619, 10^-6 M Example 4): 96.0 ± 0.8 % of max response
Platelet aggregation after Example 4 pretreatment (Platelets [4]; agonist 10-6 U46619, 10^-7 M Example 4): 94.6 ± 2.6 % of max response
Platelet aggregation after Example 4 pretreatment (Platelets [4]; agonist 10-7 Example 7, 10^-6 M Example 4): 99.5 ± 1.7 % of max response
Platelet aggregation after Example 4 pretreatment (Platelets [4]; agonist 10-7 Example 7, 10^-7 M Example 4): 97.8 ± 1.7 % of max response
Platelet aggregation after Example 4 pretreatment (Platelets [4]; agonist 10-7 U46619, 10^-6 M Example 4): −5.6 + 0.9 % of max response
Platelet aggregation after Example 4 pretreatment (Platelets [4]; agonist 10-7 U46619, 10^-7 M Example 4): −5.5 + 1.1 % of max response
Platelet aggregation after Example 4 pretreatment (Platelets [4]; agonist 10-8 Example 7, 10^-6 M Example 4): −8.0 + 2.9 % of max response
Platelet aggregation after Example 4 pretreatment (Platelets [4]; agonist 10-8 Example 7, 10^-7 M Example 4): −8.4 + 0.9 % of max response
Inhibition of ADP or arachidonic acid induced platelet aggregation (Platelets [4]; in words): did not inhibit
Intraocular pressure change ([5]; 2 HR after dosing): −6.7**
Intraocular pressure change ([5]; 4 HR after dosing): −7.7**
Intraocular pressure change ([5]; 6 HR after dosing): −8.5**
Constriction of isolated perfused coronary arteries ([6]; in words): profound constric- tion
Constriction of isolated perfused coronary arteries, potency relative to TXB2 [6]: 10^1 × TXB2
Action on the vasculature (vasculature): Potent TXA2-like agonist
Action on platelets (platelets [7]): profound TXA antagonist
Ischemic damage in the heart during coronary insufficiency [8]: Exacerbated ischemic damage

Structure (SMILES): CCCCCC(O)/C=C/C1C2CC(OC(=O)O2)C1C/C=C\CCCC(N)=O (stereo not drawn) [Example 15, 7-[6-carboamino-2-cis-hexenyl]-6-[3α-hydroxy-1-trans-octenyl]-3-oxo-2,4-dioxobicyclo [3.2.1] octane]
EC50 (FP prostanoid receptor): 387 nM
EC50 [3, 9]: 58 nM
Activity in contracting vascular smooth muscle [3]: pronounced activity
EC50 (Platelets (Human)): 3110 nM
Ability to cause platelet aggregation (Platelets (Human)): no or minimal ability
Contraction of rat aortic strips relative to TXA2 (rat aorta): 0.02 × TXA2
Effect on TX (TXA2) synthetase (TX synthetase): did not
Aggregation of rabbit PRP (rabbit PRP): did not aggre-
Antagonism of the aggregatory effect of TXA2 (rabbit PRP): did not

EC50 (FP prostanoid receptor): 3020 nM
EC50 [3, 9]: 324 nM
Structure (SMILES): CCCCCC(O)/C=C/C1C2CC(OC(=O)O2)C1C/C=C\CCCC(=O)NC(C)C (stereo not drawn) [Example 17, 7-[6-carboisopropylamino-2-cis-hexenyl]-6-[3α-hydroxy-1-trans-octenyl]-3-oxo-2,4-dioxobicyclo [3.2.1] octane]
TXA2-like activity (TXA2 receptor): Mixture of C-15 epimers has stong TXA2-like activity^14
